Assay results: patent US20230219961A1, “Pyridine acetamide derivative serving as CDK inhibitor, and preparation method therefor and use thereof” (Suzhou AlphaMa Biotechnology Co., Ltd., priority 2020, published 2023)

Legend:
[1] = system: RNA pol II Ser5; experiment: CDK7 signaling pathway in Mv4-11 cells: phosphorylation of RNA pol II Ser5 (SDS-PAGE/blot); format: cell-based; details: 6 hours, FIG. 1
Experimental: (§1) The inhibition effect of the compounds of the present disclosure on CDK7/CDK9 protein downstream RNA pol II Ser ⅖ in Mv4-11 cells in vitro was determined by the following method:
(§2) 1) Cell inoculation: Mv4-11 cells with good growing state in logarithmic growth phase were inoculated into a six-well plate with 2^∗10^5 cells/well, and cultured overnight at 37° C. and under 5% CO2 condition.
(§3) 2) Administration: The compound was diluted with 2 mL of 1640 medium containing 10% FBS and 1% PS. […] of the medium containing the compound was added to the overnight cultured cells, and it was placed in a 37° C., 5% CO2 cell incubator for 6 hours.
(§4) 3) Protein extraction and quantification: Cell suspension was collected and centrifuged at 1000 g for 5 min, the cell culturing medium was discarded, and PBS was added for resuspension and centrifugation; it was repeated three times, the residual liquid was sucked dry, 80 uL cell lysate was added per well, it was placed to ice, shaked for 10 min on a shaker and centrifuged at 12000 g for 5 min, and the supernatant, ie, the total protein solution, was collected; the protein concentration was tested by BCA.
(§5) 4) 12% SDS-PAGE electrophoresis was used to detect, after that trarsmembran was carried out at 100 V voltage for 3 h, blocking solution (Beyotime: P0235) was used to block for 15 min, TBST(Sangon Biotech: C520002) was used to wash the membrane three times, and the primary antibody (target protein CST:13499, internal reference Beyotime: AF1186) was incubated at 4° C. overnight; the membrane was washed with TBST three times; the secondary antibody (Beyotime: A0208) was incubated at room temperature for 1 hour; the membrane was washed with TBST three times; ECL (Tanon: 180-501) was used for exposure and coloration.

[2] = system: Mv4-11 cells; experiment: Inhibition of the proliferation of Mv4-11 cells (CCK8); format: cell-based; details: Homo sapiens, MV4-11, 48 h
Experimental: The inhibition effect of the compounds of the present disclosure on the proliferation of Mv4-11 cells (ATCC:CRL-9591™) in vitro was determined by the following method:
1) Cell inoculation: Mv4-11 cells with good growing state in logarithmic growth phase were inoculated into a 96-well plate at 20000 cells per well and 50 uL, and cultured at 37° C. and under 5% CO2 condition for 2-4 h.
2) Administration: The compound was diluted with 1640 medium containing 10% FBS and 1% PS: 0.4 uL of the compound with an initial concentration of 1 mM was placed in a dilution plate, each added with 199.6 uL of the above culture medium, and gradiently diluted 4-fold, so that the final concentration in the added cell was 1000, 250, 62.5, 15.625, 3.91, 0.98, 0.24, 0.06 nM. 50 µL of the medium containing the compound was sequentially added, and it was placed in a 37° C., 5% CO2 cell incubator for 48 hours.
3) Detection: 10uL CCK8 (Dojindo, CK 04) solution was added to each well, incubated in 37° C. 5% CO2 cell incubator for 2 hours, and then the OD450 value was read by Synegry H1(BioTek) multimode microplate reader.
4) Calculation: The IC50 value was calculated using Graphpad prism 5.0 software according to the concentration of the compound and the corresponding signal value.

[3] = system: RNA pol II Ser2; experiment: CDK9 signaling pathway in Mv4-11 cells: phosphorylation of RNA pol II Ser2 (SDS-PAGE/blot); format: cell-based; details: 6 hours, FIG. 1
Experimental: as §1, §2, §3, §4, §5

[4] = biological target: T1, CDK7 (Homo sapiens, UniProt P50613); experiment: Inhibitory effect on the kinase activity of CDK7 in vitro (Caliper); format: biochemical; details: 77 uM ATP, 0.2 ug/uL CTD3 peptide; read-out: CDK 7 IC50
T1 construct: purchased Eurofilns (sic; Eurofins) 14-476 M
Experimental: (§6) The detection of the inhibitory effect of the compounds of the present disclosure on the kinase activity of CDK7/CDK9 in vitro was determined by the following method:
(§7) 1) The compound was accurately weighed and dissolved in DMSO (Sigma, D2650) to a concentration of 100 mM for later use. The compound was diluted to 5-fold of a desired highest concentration, and diluted 4-fold into 6 concentration gradients, allowing the final concentration of the compound in the reaction system to be CDK7: 3000, 750, 188, 47, 12, 3 nM; CDK9: 100, 25, 6.25, 1.56, 0.39, 0.098 nM. 5 ul was taken to a 384-well plate (Corning, 4512).
(§8) 2) Kinase reaction: 10uL protein kinase (CDK7: Eurofilns,14-476 M; CDK9: Millipore,14-685 M) solution was added to the 384-well plate (Corning, 4512) containing the compound, and allowed to stand at room temperature for 10 min; a mixed solution of ATP(Sigma, A7699) and substrate polypeptide (CDK7: 77 uM ATP&0.2ug/uL CTD3 peptide (GL Biochem,SY356885); CDK9: 10 uM ATP&0.2 ug/uL CTD3 peptide (GL Biochem,SY356885)) was added, and allowed to stand at 28° C. for a short time; and then a stop solution was added to terminate the reaction at 25 uL per well.
(§9) 3) Detection: Data was collected by Caliper.
(§10) 4) Calculation: The IC50 value was calculated by Graphpad prism 5.0 software according to the concentration of the compound and the corresponding signal value.

[5] = biological target: T2, CDK9 (Homo sapiens, UniProt P50750); experiment: Inhibitory effect on the kinase activity of CDK9 in vitro (Caliper); format: biochemical; details: 10 uM ATP, 0.2 ug/uL CTD3 peptide; read-out: CDK 9 IC50
T2 construct: purchased Millipore 14-685 M
Experimental: as §6, §7, §8, §9, §10

T2 sequence (P50750 whole entry): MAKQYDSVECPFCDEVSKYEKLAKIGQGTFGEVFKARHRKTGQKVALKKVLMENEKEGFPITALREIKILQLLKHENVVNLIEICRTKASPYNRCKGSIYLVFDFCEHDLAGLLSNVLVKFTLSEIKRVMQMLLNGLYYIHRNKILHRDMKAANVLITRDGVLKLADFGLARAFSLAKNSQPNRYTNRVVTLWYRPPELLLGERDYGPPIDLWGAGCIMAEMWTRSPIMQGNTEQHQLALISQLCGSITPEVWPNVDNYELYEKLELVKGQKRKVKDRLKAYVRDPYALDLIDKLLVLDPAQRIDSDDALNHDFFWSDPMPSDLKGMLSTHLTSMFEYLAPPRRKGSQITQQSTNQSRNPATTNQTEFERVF
T2 sequence (O60563 whole entry partner): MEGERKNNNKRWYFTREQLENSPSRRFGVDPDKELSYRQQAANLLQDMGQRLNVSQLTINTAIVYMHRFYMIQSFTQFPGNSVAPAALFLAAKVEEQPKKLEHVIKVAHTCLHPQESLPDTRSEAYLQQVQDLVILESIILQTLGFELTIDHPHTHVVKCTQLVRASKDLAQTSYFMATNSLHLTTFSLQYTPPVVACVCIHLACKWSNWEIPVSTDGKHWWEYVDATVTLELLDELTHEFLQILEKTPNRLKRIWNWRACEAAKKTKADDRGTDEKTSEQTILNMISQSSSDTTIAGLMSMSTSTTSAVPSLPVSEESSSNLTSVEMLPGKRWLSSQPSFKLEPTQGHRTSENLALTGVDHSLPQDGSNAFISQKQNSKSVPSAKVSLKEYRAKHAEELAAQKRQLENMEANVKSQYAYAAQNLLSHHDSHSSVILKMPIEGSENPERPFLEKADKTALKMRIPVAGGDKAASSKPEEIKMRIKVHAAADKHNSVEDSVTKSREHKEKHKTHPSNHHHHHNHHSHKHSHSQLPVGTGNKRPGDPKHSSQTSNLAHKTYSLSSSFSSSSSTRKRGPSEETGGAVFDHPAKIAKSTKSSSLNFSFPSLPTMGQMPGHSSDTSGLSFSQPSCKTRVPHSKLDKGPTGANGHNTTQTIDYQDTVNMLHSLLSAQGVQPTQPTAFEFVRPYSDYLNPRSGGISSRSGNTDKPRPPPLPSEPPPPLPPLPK
T1 sequence (P50613 whole entry): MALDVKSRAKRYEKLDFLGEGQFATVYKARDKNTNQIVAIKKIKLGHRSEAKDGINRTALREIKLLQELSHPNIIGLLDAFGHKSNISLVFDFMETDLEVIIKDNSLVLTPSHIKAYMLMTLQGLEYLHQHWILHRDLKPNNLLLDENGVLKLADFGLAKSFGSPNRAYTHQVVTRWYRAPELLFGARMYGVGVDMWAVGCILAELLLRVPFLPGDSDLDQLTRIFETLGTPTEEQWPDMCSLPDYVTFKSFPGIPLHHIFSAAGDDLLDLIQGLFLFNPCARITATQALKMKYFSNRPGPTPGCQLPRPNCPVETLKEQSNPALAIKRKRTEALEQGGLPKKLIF
T1 sequence (P51946 whole entry partner): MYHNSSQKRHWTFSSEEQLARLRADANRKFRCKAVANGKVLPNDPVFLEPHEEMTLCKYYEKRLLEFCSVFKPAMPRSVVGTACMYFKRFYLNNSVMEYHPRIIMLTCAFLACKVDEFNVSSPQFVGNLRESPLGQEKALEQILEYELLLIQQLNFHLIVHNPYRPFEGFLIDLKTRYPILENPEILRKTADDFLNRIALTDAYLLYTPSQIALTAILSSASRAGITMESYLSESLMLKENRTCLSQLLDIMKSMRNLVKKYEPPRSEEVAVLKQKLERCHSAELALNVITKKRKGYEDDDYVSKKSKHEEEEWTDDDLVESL
T1 sequence (P51948 whole entry partner): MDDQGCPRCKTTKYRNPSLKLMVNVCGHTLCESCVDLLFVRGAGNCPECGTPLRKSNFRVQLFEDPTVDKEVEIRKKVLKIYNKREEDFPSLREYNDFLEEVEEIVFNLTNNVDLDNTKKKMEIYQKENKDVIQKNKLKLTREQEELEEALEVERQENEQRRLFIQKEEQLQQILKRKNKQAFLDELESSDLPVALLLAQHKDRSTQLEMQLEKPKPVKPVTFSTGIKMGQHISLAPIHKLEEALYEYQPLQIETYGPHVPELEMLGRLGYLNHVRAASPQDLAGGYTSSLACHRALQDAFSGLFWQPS

IC50 [2] | IC50 [4] | IC50 [5] | Compound | inhibitory effect on the phosphorylation of the CDK7 protein downstream RNA pol II Ser5 [1] | inhibitory effect on the phosphorylation of CDK9 protein downstream RNA pol II Ser2 [3]
1.6 nM | 19 nM | 2.7 nM | C[C@@H](C(=O)Nc1cc(-c2cnn3c2CC(C)(C)C3)c(Cl)cn1)c1cccc(C(N)=O)c1 [Compound 2-2, (R)-3-(1-((5-chloro-4-(5,5-dimethyl-5,6-di hydro-4H-pyrrolo[1,2-b]pyrazol-3-yl)pyridin-2-yl)amino)-1-oxopropan-2-yl)benzamide (assumed)] | significant inhibitory effect | significant inhibitory effect
3.9 nM | 103 nM | 4 nM | CNC(=O)c1cccc(CC(=O)Nc2cc(-c3cnn4c3CC(C)(C)C4)c(Cl)cn2)c1 [Compound 3, 3-(2-((5-chloro-4-(5,5-dimethyl-5,6-dihydro-4H-pyrrolo[1,2-b]pyrazol-3-yl)pyridin-2-yl)amino)-2-oxoethyl)-N-methylbenzamide] | significant inhibitory effect | –
13 nM | – | 2.9 nM | C[C@@H](C(=O)Nc1cc(-c2cnn3c2CC(C)(C)C3)c(Cl)cn1)c1cccnc1 [Compound 11-2, (R)-N-(5-chloro-4-(5,5-dimethyl-5,6-dihydro-4H-pyrrolo[1,2-b]pyrazol-3-yl)pyridin-2-yl)-2-(pyridin-3-yl)propionamide (assumed)] | significant inhibitory effect | significant inhibitory effect
148 nM | – | 44.4 nM | C[C@H](C(=O)Nc1cc(-c2cnn3c2CC(C)(C)C3)c(Cl)cn1)c1cccc(C#N)n1 [Compound 13-1, (S)-N-(5-chloro-4-(5,5-dimethyl-5,6-dihydro-4H-pyrrolo[1,2-b]pyrazol-3-yl)pyridin-2-yl)-2-(6-cyanopyridin-2-yl)propionamide (assumed)] | – | significant inhibitory effect
4.8 nM | 328 nM | 3 nM | C[C@@H](C(=O)Nc1cc(-c2cnn3c2CC(C)(C)C3)c(Cl)cn1)c1cccc(C#N)n1 [Compound 13-2, (R)-N-(5-chloro-4-(5,5-dimethyl-5,6-dihydro-4H-pyrrolo[1,2-b]pyrazol-3-yl)pyridin-2-yl)-2-(6-cyanopyridin-2-yl)propionamide (assumed)] | significant inhibitory effect | –
